# From patent publication US7794712B2, “Production of mutant strain of Aspergillus fumigatus, method of assay for inhibiting siderophore biosynthesis and diagnostic method for detecting likely Aspergillus fumigatus infection” (priority 2004, dated 2010)
# Where “and” joins values, the source holds several entries; their conditions need not be identical. Equal entries are not always repeated. Non-standard residues stand in square brackets, D forms with d. Residues, ends and D or L forms follow the SMILES beside them. ξ: configuration not given here. Orn(N5-OH,N5-Ac) = CC(=O)N(O)CCC[C@H](N)C(=O)O; ξOrn(N(OH)Ac) = CC(=O)N(O)CCCC(N)C(=O)O
# Key:
# human holotransferrin = human holotransferrin (Homo sapiens, UniProt P02787); format: biochemical; conditions: for Affinity of iron removal from holotransferrin: compared with ferrichrome; for Concentration at which complete absence of holotransferrin was observed / Concentration able to remove some iron from holotransferrin: holotransferrin 25 μM, 16 h, 37° C., pH 7.4
# Chain of human holotransferrin (P02787 20-698): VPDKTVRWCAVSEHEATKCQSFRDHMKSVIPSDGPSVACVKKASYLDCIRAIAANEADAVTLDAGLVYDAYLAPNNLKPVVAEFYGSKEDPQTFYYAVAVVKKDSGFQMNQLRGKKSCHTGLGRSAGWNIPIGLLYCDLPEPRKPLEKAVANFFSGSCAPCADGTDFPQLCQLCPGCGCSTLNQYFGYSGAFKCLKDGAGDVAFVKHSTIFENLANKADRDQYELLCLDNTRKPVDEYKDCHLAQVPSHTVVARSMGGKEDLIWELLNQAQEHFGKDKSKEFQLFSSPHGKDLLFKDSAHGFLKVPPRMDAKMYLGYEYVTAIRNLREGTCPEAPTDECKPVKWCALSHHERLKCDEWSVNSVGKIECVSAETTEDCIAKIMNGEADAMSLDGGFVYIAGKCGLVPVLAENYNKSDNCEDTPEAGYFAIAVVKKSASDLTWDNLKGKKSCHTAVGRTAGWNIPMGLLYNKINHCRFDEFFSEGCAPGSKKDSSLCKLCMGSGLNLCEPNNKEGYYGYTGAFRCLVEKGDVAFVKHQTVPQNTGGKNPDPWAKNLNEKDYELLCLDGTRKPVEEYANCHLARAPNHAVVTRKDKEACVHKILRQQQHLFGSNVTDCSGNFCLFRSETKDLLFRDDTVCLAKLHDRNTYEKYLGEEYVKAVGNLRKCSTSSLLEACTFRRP
# Protocol: Purified desferri-siderophores and commercially available ferrichrome were serially diluted to final concentrations of 2.5 mM, 250 μM, 25 μM, 2.5 μM and 250 nM (lanes 1-5, respectively). Siderophores were incubated with 12.5 μM human holo-Tf at 37 degrees for 16 hours. Iron saturation of transferrin was assessed by urea-PAGE (13).
# Holotransferrin also was incubated with commercially available desferriferrichrome for comparison. The iron saturation of transferrin was monitored by urea-PAGE. Desferritriacetylfusarinine C, desferriferricrocin, and desferriferrichrome were diluted to concentrations ranging from 5 mM to 5 μM and incubated with holotransferrin (25 μM) in 50 mM Tris-150 mM NaCl-20 mM NaHCO3 (pH 7.4) buffer for 16 h at 37° C. The extent of iron saturation of transferrin at the end of the incubation period was determined by urea-PAGE.
# A. fumigatus ΔsidA = assay: Growth (dry weight) in supplemented GA medium, ΔsidA strain; format: cell-based, Aspergillus fumigatus; conditions: for Restoration of growth of ΔsidA in the presence of human serum: 50 μM siderophore
# Protocol: (§1) In this example the growth of various strains of A. fumigatus was monitored as follows. In a first experiment, A. fumigatus was inoculated into 5 ml volumes of YG medium or 5 ml of modified Grimm-Allen (GA) medium (1 g/L KHSO4, 3 g/L K2HPO4, 3 g/L (NH4)SO4, 20 g/L sucrose, 1 g/L citric acid, 2 mg/L thiamine, 20 μg/L CuSO4, 1 mg/L MnSO4, 5.5 mg/L ZnSO4, 810 mg/L MgSO4, pH 6.9) in 25 ml acid-washed flasks at a concentration of […]. GA medium was supplemented with […] FeCl3 where described. Human serum (male) was obtained from Sigma, stored frozen until use and added to media at a concentration of 10%. DesferriTAF and desferriferricrocin were purified from A. fumigatus cultures as described above and treated with 8-hydroxyquinoline to remove all bound iron. Siderophore solutions were filter-sterilized prior to addition to media.
# (§2) In a second experiment, A. fumigatus was innoculated into 1 ml volumes of YM medium or 1 ml of the modified GA medium described above.
# (§3) Alternatively, dry weights were measured by filtering the contents of each tube through pre-weighed, pre-dried Whatman #1 filters and rinsing thoroughly with distilled water. Filters were oven-dried and re-weighed.
# [1] = system: A. fumigatus wild type (ATCC 13073); assay: Growth (dry weight) in supplemented GA medium, parental / wild type strain; format: cell-based, Aspergillus fumigatus
# Protocol: as §1, §2, §3
# A. fumigatus ATCC 13073 = assay: Growth of A. fumigatus in MEM made iron limiting with 2,2′-dipyridyl; format: cell-based, Aspergillus fumigatus; conditions: MEM (5 ml) with 250 μM 2,2′-dipyridyl; holo-/apotransferrin 25 μM, FeCl3 50 μM
# From the text: The inventors have shown that holotransferrin but not apotransferrin supports the growth of A. fumigatus in iron-depleted medium. MEM was made iron limiting by the addition of the iron-chelator 2,2′-dipyridyl.
# A. fumigatus ΔsidA^R = assay: Growth (dry weight) in supplemented GA medium, rescued strain ΔsidA^R; format: cell-based, Aspergillus fumigatus
# Protocol: as §1, §2, §3
# A. fumigatus 13073 = assay: Siderophore secretion inhibitor assay (A440 after FeCl3 addition); format: cell-based, Aspergillus fumigatus; conditions: 3 days
# From the text: In this example 96-well sterile polystyrene filter plates as described above with white Duropore membranes at the base of the plate (Millipore) were used. The plates include a thick plastic layer under the wells, which has a one-way valve function that directs fluid into a receiving 96-well plate when the filter plate is subjected to a vacuum manifold or a centrifugal force. This layer can be peeled off if the membranes are to be sampled (punched) later.
# Cultures were set up in the filter plates, with controls and inhibitors to be tested. After inclubation, culture fluid was pulled into a 96-well receiver plate, using the Beckman centrifuge and a JS 5.3 rotor designed to take 96-well plates. FeCl3 was added to the receiver plates, and A430 (general siderophores) or A440 (max for TAF) was read. Growth was scored in the plate by reading A600.
# To test this method, different antibiotics were used to show inhibition of siderophore production by A. fumigatus 13073, as no inhibitors for the SidA gene product are currently known. Suitable ranges of concentrations of amphotericin B (fungizone), hygromycin, and nystatin were calculated based on the literature. Spores were harvested from A. fumigatus 13073 into PBS Tween, then washed once with PBS and counted. They were then diluted into Neilands' medium (without citrate) to give solutions of 2×10^5 and 2×10^6/ml. 100 μl of 2× spores and 100 μl of 2× antibiotics to yield a volume of 200 μl of Neilands' medium in each well, with the desired final concentrations of spores, 10^5 or 10^6/ml.
# Antibiotics were prepared as follows. Amphotericin B came as a liquid solution, 250 µg/ml. […] Therefore 0, 0.125, 0.25, 0.5, 1 and […] final concentration was used. Nystatin was stored it in ˜1 mg dry aliquots at −20 C, and was prepared at a concentration of 2 mg/ml in DMSO for dilution into Neilands' media. According to reported information, nystatin should be effective at 1.5 to 6.5 µg/ml; therefore, 0, 0.5, 1, 5, 10 and 50 µg/ml were used as the final concentrations. Hygromycin gold stock was in solution at 100 mg/ml, and 0, 25, 50, 100, 150 and 200 µg/ml were used as the final concentrations in Neilands' medium. Plates were incubated for 3 days at 37° C. with shaking.
# To test for siderophores, 20 μL of a solution of 2 mM FeCl3 in 10 mM HCl was added to each well in the receiver plates and the A440 was recorded on a plate reader. […] An increase in A440 indicates a more intense orange-red colour that develops in the presence of ferrated siderophores. […] Because 3-day incubation produces conidia, shorter incubation periods may be preferable.
# Three identical plates were set up: one filter plate and two sterile clear 96-well plates. The clear plates were used to score growth, and the filter plate was used to detect siderophores. Columns 1-6 contained Neilands' medium without citrate and amphotericin 0-2 at g/ml. Columns 7-12 contained Neilands' medium with citrate and amphotericin at […]. The rows were set up with A. fumigatus as described above, but two sets of each were set up to be in the two plates. The spores from the previous experiment were stored at −20° C. in PBS, in siliconized tubes, at 2×10^8 conidia/ml, to facilitate these experiments. Plates were incubated for 48 hours at 37° C. without shaking.
# The filter plate was centrifuged at 1000×g for 10 minutes and the liquids caught in a clear non-sterile plate, to which FeCl3 was added. The plate was allowed to sit and develop orange colour, and was then read at 440 nm. The clear plates (one without Fe and one with Fe added to growth medium from the beginning) were read at 600 nm (A600). In the result, iron enhanced conidiation. Some wells of the filter plate were lightly conidiated and would not drain. These were hand pipetted.
# [2] = 1 ml GA + 5 μM FeCl3 + 10% serum, 50 μM desferri-TAF or desferri-ferricrocin, 4 days
# [3] = GA + FeCl3 + 10% human serum, desferrisiderophore 50 μM
# [4] = 1 ml GA, 96 hours, FeCl3 5 μM or ferrated TAF 10 μM
# [5] = 1 ml GA, 4 days 37° C., 5 μM FeCl3
# [6] = 5 ml GA medium, 4 days 37° C., 5 μM FeCl3 or 10 μM TAF
compound,measurement,setting,value
"CC(=O)N([O-])CCC[C@@H]1NC(=O)CNC(=O)[C@H](CO)NC(=O)CNC(=O)[C@H](CCCN([O-])C(C)=O)NC(=O)[C@H](CCCN([O-])C(C)=O)NC1=O.[Fe+3] [ferricrocin] (cyclo(GSG[Orn(N5-OH,N5-Ac)][Orn(N5-OH,N5-Ac)][Orn(N5-OH,N5-Ac)]))",Affinity of iron removal from holotransferrin,human holotransferrin,comparable to that of ferrichrome
same,"dry weight, ΔsidA",A. fumigatus ΔsidA; [2],11.0^1 mg
same,"dry weight, parental",[1]; [2],11.1^1 mg
CC(=O)N(O)CCCC1NC(=O)CNC(=O)CNC(=O)CNC(=O)C(CCCN(O)C(C)=O)NC(=O)C(CCCN(O)C(C)=O)NC1=O (stereo not drawn) [desferriferrichrome] (cyclo(GGG[ξOrn(N(OH)Ac)][ξOrn(N(OH)Ac)][ξOrn(N(OH)Ac)])),Concentration at which complete absence of holotransferrin was observed,human holotransferrin,5 mM
Holotransferrin: purified human iron-saturated transferrin,Mean mycelial dry wt after 96 h,A. fumigatus ATCC 13073,1.30^1 mg
"CC(=O)NC1CCCN(O)C(=O)C=C(C)CCOC(=O)C(NC(C)=O)CCCN(O)C(=O)C=C(C)CCOC(=O)C(NC(C)=O)CCCN(O)C(=O)C=C(C)CCOC1=O (stereo not drawn) [desferri-TAF, Desferritriacetylfusarinine C]",Concentration able to remove some iron from holotransferrin,human holotransferrin,500 µM
same,Concentration at which complete absence of holotransferrin was observed,human holotransferrin,5 mM
same,"Growth (mg dry weight) mean ± S.D., ΔsidAR",A. fumigatus ΔsidA^R; [3],11.3 ± 0.3 mg dry weight
same,Restoration of growth of ΔsidA in the presence of human serum,A. fumigatus ΔsidA,restored to wild-type levels
same,"Growth (mg dry weight) mean ± S.D., ΔsidA",A. fumigatus ΔsidA; [3],12.3 ± 1.2 mg dry weight
same,"Growth (mg dry weight) mean ± S.D., wild type",[1]; [3],10.1 ± 0.4 mg dry weight
[Cl][Fe]([Cl])[Cl] [FeCl3],"Growth (mg dry weight) mean ± S.D., ΔsidAR",A. fumigatus ΔsidA^R; [4],7.5 ± 0.3 mg dry weight
same,"dry weight, ΔsidA",A. fumigatus ΔsidA; [5],7.1^1 mg
same,"Growth (mg dry weight) mean ± S.D., ΔsidA",A. fumigatus ΔsidA; [4],1.4 ± 1.1 mg dry weight
same,"dry weight, ΔsidA",A. fumigatus ΔsidA; [6],47.4^1 mg
same,"dry weight, parental",[1]; [5],7.8^1 mg
same,"Growth (mg dry weight) mean ± S.D., wild type",[1]; [4],6.5 ± 0.4 mg dry weight
same,"dry weight, parental",[1]; [6],44.3^1 mg
same,Mean mycelial dry wt after 96 h,A. fumigatus ATCC 13073,0.80^1 mg
"CC(=O)N(O)CCC[C@@H]1NC(=O)CNC(=O)[C@H](CO)NC(=O)CNC(=O)[C@H](CCCN(O)C(C)=O)NC(=O)[C@H](CCCN(O)C(C)=O)NC1=O [desferriferricrocin] (cyclo(GSG[Orn(N5-OH,N5-Ac)][Orn(N5-OH,N5-Ac)][Orn(N5-OH,N5-Ac)]))",Concentration able to remove some iron from holotransferrin,human holotransferrin,500 µM
same,Concentration at which complete absence of holotransferrin was observed,human holotransferrin,5 mM
same,"Growth (mg dry weight) mean ± S.D., ΔsidAR",A. fumigatus ΔsidA^R; [3],11.0 ± 1.2 mg dry weight
same,Restoration of growth of ΔsidA in the presence of human serum,A. fumigatus ΔsidA,restored to wild-type levels
same,"Growth (mg dry weight) mean ± S.D., ΔsidA",A. fumigatus ΔsidA; [3],11.1 ± 1.1 mg dry weight
same,"Growth (mg dry weight) mean ± S.D., wild type",[1]; [3],9.7 ± 2.00 mg dry weight
Apotransferrin: iron-free human transferrin,Mean mycelial dry wt after 96 h,A. fumigatus ATCC 13073,0.02^1 mg
"CC(=O)NC1CCCN(O)C(=O)/C=C(/C)CCOC(=O)C(NC(C)=O)CCCN(O)C(=O)/C=C(/C)CCOC(=O)C(NC(C)=O)CCCN(O)C(=O)/C=C(/C)CCOC1=O (stereo not drawn) [TAF, N′,N″,N′″-triacetylfusarinine C]",Stability in human serum,,stable in human serum
same,Affinity of iron removal from holotransferrin,human holotransferrin,comparable to that of ferrichrome
same,"Growth (mg dry weight) mean ± S.D., ΔsidAR",A. fumigatus ΔsidA^R; [4],6.0 ± 0.1 mg dry weight
same,"dry weight, ΔsidA",A. fumigatus ΔsidA; [2],7.2^1 mg
same,"Growth (mg dry weight) mean ± S.D., ΔsidA",A. fumigatus ΔsidA; [4],4.4 ± 1.5 mg dry weight
same,"dry weight, ΔsidA",A. fumigatus ΔsidA; [6],46^1 mg
same,"dry weight, parental",[1]; [2],9.7^1 mg
same,"Growth (mg dry weight) mean ± S.D., wild type",[1]; [4],6.2 ± 0.5 mg dry weight
same,"dry weight, parental",[1]; [6],41^1 mg
C[C@@H]1[C@H](O)[C@@H](C)/C=C/C=C/CC/C=C/C=C/C=C/C=C/C(O[C@H]2O[C@H](C)[C@@H](O)[C@H](N)[C@@H]2O)CC2O[C@](O)(CC(O)C(O)CCC(O)CC(O)CC(O)CC(=O)O[C@H]1C)CC(O)C2C(=O)O (stereo partly drawn) [nystatin],A440 (ferrated siderophores),"A. fumigatus 13073; nystatin 0.5 μg/ml, 100000 spores/ml",0.341 and 0.414 and 0.359
same,A440 (ferrated siderophores),"A. fumigatus 13073; nystatin 0.5 μg/ml, 1000000 spores/ml",0.416 and 0.382 and 0.232
same,A440 (ferrated siderophores),"A. fumigatus 13073; nystatin 1 μg/ml, 100000 spores/ml",0.340 and 0.31 and 0.325
same,A440 (ferrated siderophores),"A. fumigatus 13073; nystatin 1 μg/ml, 1000000 spores/ml",0.412 and 0.492 and 0.329
same,A440 (ferrated siderophores),"A. fumigatus 13073; nystatin 5 μg/ml, 100000 spores/ml",0.048 and 0.042 and 0.044
same,A440 (ferrated siderophores),"A. fumigatus 13073; nystatin 5 μg/ml, 1000000 spores/ml",0.042 and 0.043
same,A440 (ferrated siderophores),"A. fumigatus 13073; nystatin 10 μg/ml, 100000 spores/ml",0.043 and 0.045 and 0.042
same,A440 (ferrated siderophores),"A. fumigatus 13073; nystatin 10 μg/ml, 1000000 spores/ml",0.042 and 0.043 and 0.050
same,A440 (ferrated siderophores),"A. fumigatus 13073; nystatin 50 μg/ml, 100000 spores/ml",0.048 and 0.052 and 0.051
same,A440 (ferrated siderophores),"A. fumigatus 13073; nystatin 50 μg/ml, 1000000 spores/ml",0.048 and 0.051
